From article PMC4468608, “A distinct p53 target gene set predicts for response to the selective p53–HDM2 inhibitor NVP-CGM097” (eLife, 2015)

System: cell lines from the Cancer Cell Line Encyclopedia (CCLE)
Test: High-throughput cell viability assay, CCLE cell line panel (n = 356)
Assay type: cell-based, human
Method: Cell lines were partitioned into sensitive and insensitive groups based on compound potency (IC50). […] All other cell lines were obtained from ATCC (American Type Culture Collection), DSMZ (Deutsche Sammlung von Mikroorganismen und Zellkulturen), and HSRRB (Health Science Research Resources Bank) and cultured in RPMI or Dulbecco's modified Eagle's medium plus 10% FBS (Invitrogen, Carlsbad, CA) at 37°C, 5% CO2.

[1] = cell line KMRC-1, kidney, TP53 WT
[2] = cell line KMS-27, haem._and_lymphoid_tissue, TP53 WT
[3] = cell line KMS-28BM, haem._and_lymphoid_tissue, TP53 WT
[4] = cell line KNS-42, central_nervous_system, TP53 MUT
[5] = cell line KYSE-410, oesophagus, TP53 MUT
[6] = cell line KYSE-450, oesophagus, TP53 MUT
[7] = cell line KYSE-510, oesophagus, TP53 MUT
[8] = cell line KYSE-520, oesophagus, TP53 MUT
[9] = cell line L-428, haem._and_lymphoid_tissue, TP53 MUT
[10] = cell line LN-229, central_nervous_system, TP53 WT
[11] = cell line MEL-HO, skin, TP53 WT
[12] = cell line MHH-ES-1, bone, TP53 MUT
[13] = cell line Malme-3M, skin, TP53 WT
[14] = cell line NCI-H460, lung, TP53 WT
[15] = cell line NCI-H647, lung, TP53 MUT
[16] = cell line NCI-H1299, lung, TP53 WT
[17] = cell line NCI-H1341, lung, TP53 WT
[18] = cell line NCI-H1650, lung, TP53 MUT
[19] = cell line NCI-H1693, lung, TP53 MUT
[20] = cell line NCI-H1703, lung, TP53 MUT
[21] = cell line OAW42, ovary, TP53 WT
[22] = cell line OE19, oesophagus, TP53 MUT
[23] = cell line OVCAR-8, ovary, TP53 MUT
[24] = cell line PE/CA-PJ41 (clone D2), upper_aerodigestive_tract, TP53 MUT
[25] = cell line PEER, haem._and_lymphoid_tissue, TP53 MUT
[26] = cell line SCaBER, urinary_tract, TP53 MUT
[27] = cell line SK-HEP-1, liver, TP53 WT
[28] = cell line SK-MEL-5, skin, TP53 WT
[29] = cell line SK-MEL-24, skin, TP53 WT
[30] = cell line SNG-M, endometrium, TP53 WT
[31] = cell line SNU-423, liver, TP53 MUT
[32] = cell line SW403, large_intestine, TP53 MUT
[33] = cell line SW 780, urinary_tract, TP53 WT
[34] = cell line SW 1573, lung, TP53 WT
[35] = cell line TE-9, oesophagus, TP53 MUT
[36] = cell line TE-11, oesophagus, TP53 MUT
[37] = cell line UM-UC-3, urinary_tract, TP53 MUT
[38] = cut-off IC50 4 µM, 356 cell lines

## COc1cc2c(cc1OC(C)C)[C@H](c1ccc(Cl)cc1)N(c1ccc(N(C)C[C@H]3CC[C@H](N4CCNC(=O)C4)CC3)cc1)C(=O)C2 [NVP-CFC218]
Cell line JHOS-2, ovary, TP53 MUT
  NVP- CFC218 sensitivity call: insensitive (Sensitivity call for each compound was applied according to a cut-off of 4 µM for IC50 and -50% for Amax)
[1]
  NVP- CFC218 Amax (%): -42.40%
  NVP- CFC218 sensitivity call: insensitive (Sensitivity call for each compound was applied according to a cut-off of 4 µM for IC50 and -50% for Amax)
[2]
  NVP- CFC218 Amax (%): -1.14%
  NVP- CFC218 sensitivity call: insensitive (Sensitivity call for each compound was applied according to a cut-off of 4 µM for IC50 and -50% for Amax)
[3]
  NVP- CFC218 Amax (%): 3.74%
  NVP- CFC218 sensitivity call: insensitive (Sensitivity call for each compound was applied according to a cut-off of 4 µM for IC50 and -50% for Amax)
[4]
  NVP- CFC218 Amax (%): -8.48%
  NVP- CFC218 sensitivity call: insensitive (Sensitivity call for each compound was applied according to a cut-off of 4 µM for IC50 and -50% for Amax)
[5]
  NVP- CFC218 Amax (%): -24.33%
  NVP- CFC218 sensitivity call: insensitive (Sensitivity call for each compound was applied according to a cut-off of 4 µM for IC50 and -50% for Amax)
[6]
  NVP- CFC218 Amax (%): -1.37%
  NVP- CFC218 sensitivity call: insensitive (Sensitivity call for each compound was applied according to a cut-off of 4 µM for IC50 and -50% for Amax)
[7]
  NVP- CFC218 Amax (%): 3.18%
  NVP- CFC218 sensitivity call: insensitive (Sensitivity call for each compound was applied according to a cut-off of 4 µM for IC50 and -50% for Amax)
[8]
  NVP- CFC218 Amax (%): -5.52%
  NVP- CFC218 sensitivity call: insensitive (Sensitivity call for each compound was applied according to a cut-off of 4 µM for IC50 and -50% for Amax)
[9]
  NVP- CFC218 Amax (%): -26.31%
  NVP- CFC218 sensitivity call: insensitive (Sensitivity call for each compound was applied according to a cut-off of 4 µM for IC50 and -50% for Amax)
[10]
  NVP- CFC218 Amax (%): -42.01%
  NVP- CFC218 sensitivity call: insensitive (Sensitivity call for each compound was applied according to a cut-off of 4 µM for IC50 and -50% for Amax)
[11]
  NVP- CFC218 Amax (%): -40.38%
  NVP- CFC218 sensitivity call: insensitive (Sensitivity call for each compound was applied according to a cut-off of 4 µM for IC50 and -50% for Amax)
[12]
  NVP- CFC218 Amax (%): 1.25%
  NVP- CFC218 sensitivity call: insensitive (Sensitivity call for each compound was applied according to a cut-off of 4 µM for IC50 and -50% for Amax)
[13]
  NVP- CFC218 Amax (%): -39.40%
  NVP- CFC218 sensitivity call: insensitive (Sensitivity call for each compound was applied according to a cut-off of 4 µM for IC50 and -50% for Amax)
[14]
  NVP- CFC218 Amax (%): 0.31%
  NVP- CFC218 sensitivity call: insensitive (Sensitivity call for each compound was applied according to a cut-off of 4 µM for IC50 and -50% for Amax)
[15]
  NVP- CFC218 Amax (%): -29.54%
  NVP- CFC218 sensitivity call: insensitive (Sensitivity call for each compound was applied according to a cut-off of 4 µM for IC50 and -50% for Amax)
[16]
  NVP- CFC218 Amax (%): 0.83%
  NVP- CFC218 sensitivity call: insensitive (Sensitivity call for each compound was applied according to a cut-off of 4 µM for IC50 and -50% for Amax)
[17]
  NVP- CFC218 Amax (%): -36.36%
  NVP- CFC218 sensitivity call: insensitive (Sensitivity call for each compound was applied according to a cut-off of 4 µM for IC50 and -50% for Amax)
[18]
  NVP- CFC218 Amax (%): 2.72%
  NVP- CFC218 sensitivity call: insensitive (Sensitivity call for each compound was applied according to a cut-off of 4 µM for IC50 and -50% for Amax)
[19]
  NVP- CFC218 Amax (%): -4.47%
  NVP- CFC218 sensitivity call: insensitive (Sensitivity call for each compound was applied according to a cut-off of 4 µM for IC50 and -50% for Amax)
[20]
  NVP- CFC218 Amax (%): -40.27%
  NVP- CFC218 sensitivity call: insensitive (Sensitivity call for each compound was applied according to a cut-off of 4 µM for IC50 and -50% for Amax)
[21]
  NVP- CFC218 Amax (%): -7.13%
  NVP- CFC218 sensitivity call: insensitive (Sensitivity call for each compound was applied according to a cut-off of 4 µM for IC50 and -50% for Amax)
[22]
  NVP- CFC218 Amax (%): 14.48%
  NVP- CFC218 sensitivity call: insensitive (Sensitivity call for each compound was applied according to a cut-off of 4 µM for IC50 and -50% for Amax)
[23]
  NVP- CFC218 Amax (%): -30.79%
  NVP- CFC218 sensitivity call: insensitive (Sensitivity call for each compound was applied according to a cut-off of 4 µM for IC50 and -50% for Amax)
[24]
  NVP- CFC218 Amax (%): -0.29%
  NVP- CFC218 sensitivity call: insensitive (Sensitivity call for each compound was applied according to a cut-off of 4 µM for IC50 and -50% for Amax)
[25]
  NVP- CFC218 Amax (%): -46.94%
  NVP- CFC218 sensitivity call: insensitive (Sensitivity call for each compound was applied according to a cut-off of 4 µM for IC50 and -50% for Amax)
[26]
  NVP- CFC218 Amax (%): 0.88%
  NVP- CFC218 sensitivity call: insensitive (Sensitivity call for each compound was applied according to a cut-off of 4 µM for IC50 and -50% for Amax)
[27]
  NVP- CFC218 Amax (%): -41.72%
  NVP- CFC218 sensitivity call: insensitive (Sensitivity call for each compound was applied according to a cut-off of 4 µM for IC50 and -50% for Amax)
[28]
  NVP- CFC218 Amax (%): -47.83%
  NVP- CFC218 sensitivity call: insensitive (Sensitivity call for each compound was applied according to a cut-off of 4 µM for IC50 and -50% for Amax)
[29]
  NVP- CFC218 Amax (%): -47.55%
  NVP- CFC218 sensitivity call: insensitive (Sensitivity call for each compound was applied according to a cut-off of 4 µM for IC50 and -50% for Amax)
[30]
  NVP- CFC218 Amax (%): -25.75%
  NVP- CFC218 sensitivity call: insensitive (Sensitivity call for each compound was applied according to a cut-off of 4 µM for IC50 and -50% for Amax)
[31]
  NVP- CFC218 Amax (%): -5.91%
  NVP- CFC218 sensitivity call: insensitive (Sensitivity call for each compound was applied according to a cut-off of 4 µM for IC50 and -50% for Amax)
[32]
  NVP- CFC218 Amax (%): 51.39%
  NVP- CFC218 sensitivity call: insensitive (Sensitivity call for each compound was applied according to a cut-off of 4 µM for IC50 and -50% for Amax)
[33]
  NVP- CFC218 Amax (%): -38.52%
  NVP- CFC218 sensitivity call: insensitive (Sensitivity call for each compound was applied according to a cut-off of 4 µM for IC50 and -50% for Amax)
[34]
  NVP- CFC218 Amax (%): -48.52%
  NVP- CFC218 sensitivity call: insensitive (Sensitivity call for each compound was applied according to a cut-off of 4 µM for IC50 and -50% for Amax)
Cell line Sq-1, lung, TP53 WT
  NVP- CFC218 Amax (%): 4.40%
  NVP- CFC218 sensitivity call: insensitive (Sensitivity call for each compound was applied according to a cut-off of 4 µM for IC50 and -50% for Amax)
[35]
  NVP- CFC218 Amax (%): -6.46%
  NVP- CFC218 sensitivity call: insensitive (Sensitivity call for each compound was applied according to a cut-off of 4 µM for IC50 and -50% for Amax)
[36]
  NVP- CFC218 Amax (%): -3.43%
  NVP- CFC218 sensitivity call: insensitive (Sensitivity call for each compound was applied according to a cut-off of 4 µM for IC50 and -50% for Amax)
[37]
  NVP- CFC218 Amax (%): -27.23%
  NVP- CFC218 sensitivity call: insensitive (Sensitivity call for each compound was applied according to a cut-off of 4 µM for IC50 and -50% for Amax)
Cell line WM-88, skin, TP53 WT
  NVP- CFC218 Amax (%): -37.15%
  NVP- CFC218 sensitivity call: insensitive (Sensitivity call for each compound was applied according to a cut-off of 4 µM for IC50 and -50% for Amax)
[38]
  Number of insensitive cell lines, p53MUT: 252
  Number of insensitive cell lines, p53WT: 57
  Number of insensitive cell lines, total: 309
  Number of sensitive cell lines, p53MUT: 4
  Number of sensitive cell lines, p53WT: 43
Estimated from the NVP-CFC218 sensitivity data
  baseline response rate without prior stratification: 19%
For the sensitive cell lines
  maximal compound effect level (Amax): ≤ −50%
